US20250186542A1, “COMPOSITION CONTAINING PEPTIDE COMPOUND FOR USE WITH SURFACTANT” (CHUGAI SEIYAKU KABUSHIKI KAISHA, priority 2022, published 2025)
In brackets after ≈: the same amount, converted by molar mass. Bridge positions count the residues as written; N and C are the ends. Square brackets hold non-standard residues; d marks the D form. Peptide text beside a SMILES is read from it. * marks the point of attachment. ξ: configuration not given here. hPhe(3-Cl-4-CF3) = N[C@@H](CCc1ccc(C(F)(F)F)c(Cl)c1)C(=O)O; Phe(3-Cl) = N[C@@H](Cc1cccc(Cl)c1)C(=O)O; NMeCha = CN[C@@H](CC1CCCCC1)C(=O)O; NMeChg = CN[C@H](C(=O)O)C1CCCCC1; NMeF = CN[C@@H](Cc1ccccc1)C(=O)O; NMeD = CN[C@@H](CC(=O)O)C(=O)O; dNMeD = CN[C@H](CC(=O)O)C(=O)O; dNMeL = CN[C@H](CC(C)C)C(=O)O; ξIle = CC[C@H](C)C(N)C(=O)O; NMeS = CN[C@@H](CO)C(=O)O; Pip = O=C(O)[C@@H]1CCCCN1; Nle = CCCC[C@H](N)C(=O)O; Piperidide = C1CCN(*)CC1; Pyrrolidide = C1CCN(*)C1; dNMeA = CN[C@H](C)C(=O)O; Ac5c = NC1(C(=O)O)CCCC1; Sar = CNCC(=O)O; Propyl = CCC*

What was measured:
[1] = tested on: Caco-2 cells; assay: Evaluation of Caco-2 membrane permeability; format: in vitro ADME; conditions: HBSS pH 7.4 4% BSA basal, 180 minutes; for Without 5 mM lauroyl-L-carnitine Permeability coefficient (Caco-2 Papp): 10 µM compound in FaSSIF/HBSS pH 6.5 apical, no lauroyl-L-carnitine; for With 5 mM lauroyl-L-carnitine Permeability coefficient (Caco-2 Papp): 10 µM compound, 5 mM lauroyl-L-carnitine in FaSSIF/HBSS pH 6.5 apical
Protocol: (§1) In the above measurements, a Pgp inhibitor, such as Zosquidar, can be added to the FaSSIF/HBSS buffer and the HBSS buffer, respectively.
(§2) After step (step 1) and before step (step 2) of the above, pre-incubation can be performed by allowing each well to stand at 5% CO2, 37° C., 80 rpm for 20 to 24 hours.
(§3) After pre-incubation, the solution at the Basal side can be removed and washed, and a new solution of the same composition can be added. A Pgp inhibitor can also be added to the new solution. When the pre-incubation is performed, it is preferable that a DMEM solution (pH 7.4) containing 4% BSA is used instead of the HBSS buffer (pH 7.4).
(§4) In addition, as the concentration of the substance to be evaluated on the donor side used in the calculation of the permeability coefficient in step (step 3) above, the concentration when initially added can be used, or the concentration measured by collecting the solution at the Apical side before the start of pre-incubation or the start of shaking in the above step (step 2) can be used. In particular, when the preincubation is performed, it is preferable to use the concentration of the solution at the Apical side collected before pre-incubation.

[2] = Evaluation of solubility in 50 mM phosphate buffer (PPB, pH 6.5); format: physicochemical
Protocol: To an excessive amount of a lyophilized powder of the compound, 50 mM phosphate buffer (PPB, pH 6.5) is added, and after shaking (37° C., 1 atm, 1800 rpm, for 22 to 24 hours), the mixture is filtered with a filter, and the compound concentration of the filtrate is measured by LC/MS/MS. Solubility (g/mL) is calculated from the measured compound concentration.
Solubility (μg/mL) was calculated from the measured compound concentration.

[3] = Evaluation of Caco-2 membrane permeability; format: in vitro ADME; conditions: human
Protocol: as §1, §2, §3, §4

[4] = 50 mM phosphate buffer pH 6.5, 37° C., 1 atm, 22 to 24 hours, read-out: PPB solubility
[5] = Caco-2, With 5 mM lauroyl-L-carnitine Permeability coefficient (Caco-2 Papp)
[6] = Caco-2, Without 5 mM lauroyl-L-carnitine Permeability coefficient (Caco-2 Papp)

SMILES | Without 5 mM lauroyl-L-carnitine Permeability coefficient (Caco-2 Papp) [1] | With 5 mM lauroyl-L-carnitine Permeability coefficient (Caco-2 Papp) [1] | solubility [2, 4] | Papp A→B at 180 min ([3]; Caco-2, 5 mM lauroyl-L-carnitine in FaSSIF/HBSS pH 6.5 apical, HBSS pH 7.4 4% BSA basal, 180 minutes) | Papp A→B at 180 min [3, 5] | Papp A→B at 180 min [3, 6] | solubility ([2]; pH 6.5)
CC[C@H](C)[C@@H]1NC(=O)[C@H](CC(C)C)N(C)C(=O)CC(C(=O)N2CCOCC2)N(C)C(=O)[C@H](C2CCCC2)N(C)C(=O)C2(CCCC2)NC(=O)[C@@H]2CCCN2C(=O)[C@H](CCc2ccc(C(F)(F)F)c(Cl)c2)NC(=O)CN(C)C(=O)[C@H](Cc2ccc(C)cc2)N(CC)C(=O)[C@@H]2CCN2C(=O)[C@H](C)N(C)C1=O (single isomer, unassigned) [Compound 3] |  |  |  |  | 0.366 ×10⁻⁶ cm/s | 0.215 ×10⁻⁶ cm/s | 1.81 µg/mL (≈ 1.22 µM)
CC[C@H](C)[C@@H]1NC(=O)[C@H](CC(C)C)N(C)C(=O)CC(C(=O)N2CCCCC2)N(C)C(=O)[C@H](C2CCCC2)N(C)C(=O)C2(CCCC2)NC(=O)[C@@H]2CCCN2C(=O)[C@H](CCc2ccc(C(F)(F)F)c(Cl)c2)NC(=O)CN(C)C(=O)[C@H](CC2CCCCC2)N(C)C(=O)[C@@H]2CCN2C(=O)[C@H](C)N(C)C1=O (single isomer, unassigned) [Compound 8] | 0.042 ×10⁻⁶ cm/s | 0.154 ×10⁻⁶ cm/s | 1.13 µg/mL (≈ 0.777 µM) |  |  |  | 
CC[C@H](C)[C@@H]1NC(=O)C(CC(C)C)N(C)C(=O)CC(C(=O)N(C)C)N(C)C(=O)[C@H](C2CCCC2)N(C)C(=O)C(C)NC(=O)C(C)N(C)C(=O)[C@H](CCc2ccc(C(F)(F)F)c(Cl)c2)NC(=O)CN(C)C(=O)[C@H](CC2CCCCC2)N(C)C(=O)[C@@H]2CCN2C(=O)[C@H](C)N(C)C1=O (single isomer, unassigned) [Compound 9] | 0.00949 ×10⁻⁶ cm/s | 0.0214 ×10⁻⁶ cm/s | 9.18 µg/mL (≈ 6.74 µM) |  |  |  | 
CCCCN1CC(=O)N(C)[C@@H](CC(C)C)C(=O)N[C@@H](Cc2ccc(C(=O)NS(C)(=O)=O)c(OC)c2)C(=O)N(C)[C@@H](CC(C)C)C(=O)N(C)[C@@H](CC(C)C)C(=O)NC(C(=O)N2CCCCC2)CC(=O)NC(CC(C)C)C(=O)N(C)[C@@H](Cc2ccccc2)C(=O)NC(C(C)C)C(=O)N(C)[C@@H](CC(C)C)C(=O)N[C@@H]([C@H](C)O)C1=O (single isomer, unassigned) [Compound 11] |  |  |  |  | 0.0302 ×10⁻⁶ cm/s | 0.00921 ×10⁻⁶ cm/s | 16.2 µg/mL (≈ 10.3 µM)
CC[C@@H](C)[C@H]1NC(=O)[C@@H](Cc2ccccc2)N(C)C(=O)CN(C)C(=O)C[C@@H](C(=O)N2CCCCC2)NC(=O)[C@@H](CC(C)C)N(C)C(=O)[C@@H](COC(C)(C)C)NC(=O)[C@@H](CC(C)C)N(C)C(=O)[C@@H](CCc2ccccc2)N(C)C(=O)CN(C)C(=O)[C@@H]([C@H](C)O)NC(=O)[C@@H](CC(C)C)N(C)C1=O (stereo in doubt) [Compound 7] | <0.0944 ×10⁻⁶ cm/s | 0.526 ×10⁻⁶ cm/s | 5.76 µg/mL (≈ 4.11 µM) |  |  |  | 
CC[C@H](C)C1NC(=O)[C@@H](CC(C)C)N(C)C(=O)C[C@H](C(=O)N2CCCCC2)N(C)C(=O)[C@H](C2CCCCC2)N(C)C(=O)C2(CCCC2)NC(=O)[C@@H]2CCCN2C(=O)[C@H](CCc2ccc(C(F)(F)F)c(Cl)c2)NC(=O)CN(C)C(=O)[C@H](CC2CCCCC2)N(C)C(=O)CN(C)C(=O)CN(C)C1=O (some centres unmarked) [Compound 1] ([dNMeL][ξIle][Sar][Sar][NMeCha][Sar][hPhe(3-Cl-4-CF3)]P[Ac5c][NMeChg][dNMeD]-Piperidide; lactam N-11) | 0.0142 ×10⁻⁶ cm/s | 0.253 ×10⁻⁶ cm/s | 1.12 µg/mL (≈ 0.777 µM) |  |  |  | 
CCCC[C@@H]1NC(=O)[C@@H]2CCCN2C(=O)[C@H](CCCC)NC(=O)[C@@H](C)N(C)C(=O)C[C@@H](C(=O)N2CCCC2)N(C)C(=O)[C@@H]2CCCN2C(=O)[C@H]([C@@H](C)CC)NC(=O)[C@@H]2CCCCN2C(=O)[C@H](Cc2cccc(Cl)c2)NC(=O)[C@H](COCCC)N(C)C(=O)[C@H](Cc2ccccc2)N(C)C1=O [Compound 5] ([dNMeA][Nle]P[Nle][NMeF][NMeS](Propyl)[Phe(3-Cl)][Pip]IP[NMeD]-Pyrrolidide; lactam N-11) | 0.00372 ×10⁻⁶ cm/s | 0.0264 ×10⁻⁶ cm/s |  |  |  |  | 

Continued, in another order:

Without 5 mM lauroyl-L-carnitine Permeability coefficient (Caco-2 Papp) [1] | With 5 mM lauroyl-L-carnitine Permeability coefficient (Caco-2 Papp) [1] | solubility [2, 4] | Papp A→B at 180 min ([3]; Caco-2, 5 mM lauroyl-L-carnitine in FaSSIF/HBSS pH 6.5 apical, HBSS pH 7.4 4% BSA basal, 180 minutes) | SMILES | Papp A→B at 180 min [3, 5] | Papp A→B at 180 min [3, 6] | solubility ([2]; pH 6.5)
0.0491 ×10⁻⁶ cm/s | 0.265 ×10⁻⁶ cm/s | 1.18 µg/mL (≈ 0.81 µM) |  | CC[C@H](C)[C@@H]1NC(=O)[C@H](CC(C)C)N(C)C(=O)CC(C(=O)N2CCOCC2)N(C)C(=O)[C@H](C2CCCC2)N(C)C(=O)C2(CCCC2)NC(=O)[C@@H]2CCCN2C(=O)[C@H](CCc2ccc(C(F)(F)F)c(Cl)c2)NC(=O)CN(C)C(=O)[C@H](CC2CCCCC2)N(C)C(=O)[C@@H]2CCN2C(=O)[C@H](C)N(C)C1=O (single isomer, unassigned) [Compound 2] |  |  | 
<0.00976 ×10⁻⁶ cm/s |  | 101 µg/mL (≈ 71.6 µM) | 0.014 ×10⁻⁶ cm/s | CC[C@H](C)[C@@H]1NC(=O)[C@H](CC(C)C)N(C)C(=O)CC(C(=O)N2CCOCC2)N(C)C(=O)[C@H](C2CCCC2)N(C)C(=O)C2(CCCC2)NC(=O)[C@@H]2CCCN2C(=O)[C@H](CCc2ccc(C(F)(F)F)c(Cl)c2)NC(=O)CN(C)C(=O)[C@H](C2CCCC2)N(C)C(=O)[C@@H]2CCN2C(=O)[C@H](C)NC1=O (single isomer, unassigned) [Compound 10] |  |  | 
